Reference: PubChem BioAssay (NCI)
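Interpolation was linear, between the two tested concentrations surrounding the appropriate level; five concentrations were tested over 48 hours in 96-well plates. At the TGI there is no net growth.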 Where a SMILES comes first, the peptide text is derived from it. The star is where a group is joined. X36 = O=C(c1ccc(-c2ccc(Cl)cc2Cl)o1)*

Assays:
Assay in all cases: NCI-60 cell line screen, 48 h
BT-549 breast = system: BT-549 breast
COLO 205 colon = system: COLO 205 colon
HCT-15 colon = system: HCT-15 colon
HL-60(TB) leukemia = system: HL-60(TB) leukemia
HT29 colon = system: HT29 colon
K-562 leukemia = system: K-562 leukemia
M14 melanoma = system: M14 melanoma
MCF7 breast = system: MCF7 breast
MDA-MB-231 breast = system: MDA-MB-231 breast
NCI-H460 lung = system: NCI-H460 lung
OVCAR-5 ovarian = system: OVCAR-5 ovarian
OVCAR-8 ovarian = system: OVCAR-8 ovarian
PC-3 prostate = system: PC-3 prostate
RXF 393 renal = system: RXF 393 renal
SF-268 CNS = system: SF-268 CNS
SF-539 CNS = system: SF-539 CNS
SK-MEL-2 melanoma = system: SK-MEL-2 melanoma
TK-10 renal = system: TK-10 renal
U251 CNS = system: U251 CNS
UACC-62 melanoma = system: UACC-62 melanoma

Structure (SMILES)	TGI (BT-549 breast) [µM]	TGI (COLO 205 colon) [µM]	TGI (HCT-15 colon) [µM]	TGI (HL-60(TB) leukemia) [µM]	TGI (HT29 colon) [µM]	TGI (K-562 leukemia) [µM]	TGI (M14 melanoma) [µM]	TGI (MCF7 breast) [µM]	TGI (MDA-MB-231 breast) [µM]	TGI (NCI-H460 lung) [µM]	TGI (OVCAR-5 ovarian) [µM]	TGI (OVCAR-8 ovarian) [µM]	TGI (PC-3 prostate) [µM]	TGI (RXF 393 renal) [µM]	TGI (SF-268 CNS) [µM]	TGI (SF-539 CNS) [µM]	TGI (SK-MEL-2 melanoma) [µM]	TGI (TK-10 renal) [µM]	TGI (U251 CNS) [µM]	TGI (UACC-62 melanoma) [µM]
O=C(O)c1ccc(S(=O)(=O)c2ccccc2[N+](=O)[O-])cc1	> 10	> 10	> 10	> 10	> 10	> 10	> 10	> 10	> 10	> 10	> 10	> 10	> 10	> 10	> 10	> 10	> 10	> 10	> 10	> 10
C=CCCC(=O)CC(O)(C(F)(F)F)C(F)(F)F	> 100	> 100	> 100	> 100	> 100	> 100	> 100	> 100	> 100	> 100	> 100	> 100	> 100	> 100	–	> 100	> 100	> 100	> 100	> 100
CC(=O)O[C@H]1CC[C@@]2(C)C(=CC[C@H]3[C@@H]4C[C@H](N5CCCC5)[C@H](OC(C)=O)[C@@]4(C)CC[C@@H]32)C1	> 100	> 100	> 100	> 80.9	69.4	> 67.4	33.9	> 100	> 100	> 100	> 100	> 100	> 100	> 100	> 100	> 65.3	> 100	> 100	> 100	> 100
CCC1(C(=O)OC(C)(C)C)OC12C(C)CCCC2C (stereo not drawn)	> 100	63	> 100	37	> 100	52.8	> 100	51.4	> 100	> 100	> 100	> 100	> 100	36.4	> 100	> 100	> 100	> 100	> 100	> 100
CCC(C)C(NC(=O)CNC(=O)C(Cc1ccccc1)NC(=O)C1CCCN1C(=O)c1ccc(-c2ccc(Cl)cc2Cl)o1)C(=O)OC (stereo not drawn) (X36-PFGI-OMe; configuration not given here)	> 100	> 100	> 100	> 100	> 100	> 100	> 100	> 100	> 100	> 100	> 100	> 100	49.1	> 100	> 100	86.6	> 100	> 100	93.5	> 100
Nc1ccc(N=Nc2ccccc2)cc1	> 100	> 100	> 100	> 100	> 100	> 100	> 100	> 100	88	> 100	> 100	> 100	> 100	> 100	–	> 100	68.4	> 100	> 100	> 100
CC1=NN2C(=N)/C(=C/c3ccco3)C(=O)N=C2S1	> 100	> 100	> 100	> 100	> 100	> 100	> 100	> 100	> 100	> 100	> 100	> 100	> 100	> 100	> 100	> 100	> 100	> 100	> 100	> 100
Cc1ccc([C@H]2CC(=O)C[C@H](c3ccc(C)cc3)C23C(=O)c2ccccc2C3=O)cc1	> 100	> 100	> 100	33.2	> 100	> 100	> 100	> 100	> 100	> 100	> 100	> 100	84.5	39	> 100	> 100	> 100	> 100	35.6	> 100
O=c1[nH]nc(Cc2ccc([N+](=O)[O-])cc2)n1CCO	> 100	> 100	> 100	> 100	> 100	> 100	> 100	> 100	> 100	> 100	> 100	> 100	> 100	–	> 100	> 100	> 100	> 100	> 100	> 100
CN(O)C(=O)c1cccc(Cl)c1	> 100	> 100	> 100	> 100	> 100	> 100	> 100	> 100	> 100	> 100	> 100	> 100	> 100	> 100	> 100	> 100	> 100	> 100	> 100	> 100
COC(=O)C1=CC(=O)OC1(OO)c1ccccc1 (stereo not drawn)	> 100	> 100	> 100	20.4	> 100	> 100	> 100	> 100	> 100	> 100	> 100	> 100	> 100	> 100	–	> 100	> 100	> 100	> 100	> 100
CCOC(=O)/C=C(/C(=O)OCC)n1ccc(N)nc1=O	> 100	> 100	> 100	> 100	> 100	> 100	> 100	> 100	> 100	> 100	> 100	> 100	> 100	–	> 100	> 100	> 100	> 100	> 100	> 100
CCn1nc2c3c(ncn3C(C)(C)O2)c1=O	> 100	> 100	> 100	> 100	> 100	> 100	> 100	> 100	> 100	> 100	> 100	–	> 100	> 100	> 100	–	> 100	> 100	> 100	> 100
CN(NC(=O)c1cccs1)C1=NCCCN1	> 100	> 100	> 100	> 100	> 100	> 100	> 100	> 100	> 100	> 100	> 100	> 100	> 100	> 100	> 100	> 100	> 100	> 100	> 100	> 100
CCN1C(=O)C(=C/C=C/c2ccc([N+](=O)[O-])cc2)C(=O)N(CC)C1=S	32.5	> 100	> 100	> 100	50.7	48.4	> 100	52.5	47	> 100	> 100	39.7	34.6	33.1	53	40.1	65.3	37.8	32.4	34.7
CC(=O)c1ccc2c3c1[C@@H]1O[C@@H]1c1cccc(c1-3)[C@@H]1O[C@H]21	35.1	28.2	12.5	35	> 27.9	> 100	22.3	> 40.1	42.9	–	34.7	18.1	> 52.3	25.8	27.4	–	> 57.1	> 77.1	19.3	31.1
Cc1ccc2nc(Cl)c(/C=N/N3C(=O)/C(=C/c4ccccc4S)N=C3c3ccccc3)cc2c1	> 100	> 100	> 100	61.6	> 100	49	79.4	> 100	> 100	> 100	> 100	> 100	> 100	–	> 100	43	52.2	> 100	> 100	> 100
CCOC(=O)/C=C(\C(=O)OCC)n1cc(C)c(=O)n(Cc2cnnn2CCCCOC(C)=O)c1=O	22.6	–	> 25.2	6.73	21.3	> 35.9	86.2	21.5	50.2	65.7	39.5	15.6	> 71.3	9.1	54.1	5.66	53	13.7	49.2	31.7
O=c1nc2c(c(-c3ccccc3Cl)[nH]1)COC/C2=C\c1ccccc1Cl	> 100	> 100	> 100	> 100	> 100	–	> 100	> 100	> 100	> 100	> 100	> 100	> 100	> 100	> 100	> 100	> 100	> 100	> 100	> 100
